Measured values from US20260118345A1, “METHOD OF EVALUATING INTERCELLULAR INTERACTIONS IN NEUROINFLAMMATION” (FUJIFILM Corporation, priority 2023, published 2026).

What was measured:
Format in all cases: cell-based, human
[1] = tested on: two-cell-type co-culture of neurons and astrocytes; experiment: Neural activity by calcium imaging (BPM), two-dimensional two-cell-type co-culture of neurons and astrocytes; settings: 24 hours after stimulation (TNF-α 7.5 ng/mL or LPS 100 ng/mL)
Protocol: Matrigel basement membrane matrix (Corning, 356234) diluted 120-fold with DMEM/F12 (Life technologies, 11320-033) was added to a 96-well plate at 65 μL/well and allowed to stand at 4° C. After 24 hours, the culture medium was replaced with a progenitor cell culture medium and used. Astrocyte precursor cells (XCell Science, XCS-AP-001-1V) were seeded in a 96-well plate at a density of 6×10^4 cells/well, cultured under the conditions of 37° C. and 5% CO2, after culture medium was replaced with the differentiation induction culture medium, further cultured for 5 days to differentiate into astrocytes. […] After centrifugation, the supernatant was removed, the cells were suspended in 1 mL of the co-culture medium, and the number of cells was counted. […] In addition, at 24 hours after the stimulation with LPS or TNF-α, the neural activity was evaluated by calcium imaging. […] After incubating for 1 hour under conditions of 37° C. and 5% CO2, the solution was replaced with a warmed (37° C.) recording solution, and the fluorescence was measured for 10 minutes with FDSS (registered trademark)/μcell (Hamamatsu Photonics K. K., C13299). The neural activity was evaluated by quantifying the number of peaks of calcium oscillation using Wave Checker Software (Hamamatsu Photonics K. K.).

NF-κB [2] = experiment: NF-κB localization after TNF-α stimulation, two-dimensional two-cell-type co-culture of neurons and astrocytes; settings: TNF-α 7.5 ng/mL; 3 hours after the stimulation
Protocol: (§1) Matrigel basement membrane matrix (Corning, 356234) diluted 120-fold with DMEM/F12 (Life technologies, 11320-033) was added to a 96-well plate at 65 μL/well and allowed to stand at 4° C. After 24 hours, the culture medium was replaced with a progenitor cell culture medium and used.
(§2) Astrocyte precursor cells (XCell Science, XCS-AP-001-1V) were seeded in a 96-well plate at a density of 6×10^4 cells/well, cultured under the conditions of 37° C. and 5% CO2, after culture medium was replaced with the differentiation induction culture medium, further cultured for 5 days to differentiate into astrocytes.
(§3) The neurons were produced by forcibly expressing the Ngn2 genes from the iPS cells and the cells that had been frozen and stored were used. The cells that had been frozen and stored were thawed in a warm bath at 37° C., and after thawing, the cells were added to the co-culture medium and centrifuged at 600×g at room temperature for 5 minutes. After centrifugation, the supernatant was removed, the cells were suspended in 1 mL of the co-culture medium, and the number of cells was counted.
In the two-cell-type co-culture, the neurons were seeded on the astrocytes at 3×10^4 cells/well. […]
After 3 hours of the stimulation with TNF-α, the cells were fixed by the method described in <1> of Test Example 1, and the localization of NF-κB was evaluated by the same method as in <1> of Test Example 1.

[3] = tested on: three-cell-type co-culture of neurons, astrocytes, and microglia; experiment: Neural activity by calcium imaging (BPM), two-dimensional three-cell-type co-culture of neurons, astrocytes and microglia; settings: 24 hours after stimulation (TNF-α 7.5 ng/mL or LPS 100 ng/mL)
Protocol: Matrigel basement membrane matrix (Corning, 356234) diluted 120-fold with DMEM/F12 (Life technologies, 11320-033) was added to a 96-well plate at 65 μL/well and allowed to stand at 4° C. After 24 hours, the culture medium was replaced with a progenitor cell culture medium and used. Astrocyte precursor cells (XCell Science, XCS-AP-001-1V) were seeded in a 96-well plate at a density of 6×10^4 cells/well, cultured under the conditions of 37° C. and 5% CO2, after culture medium was replaced with the differentiation induction culture medium, further cultured for 5 days to differentiate into astrocytes. […] After centrifugation, the supernatant was removed, the cells were suspended in 1 mL of the co-culture medium, and the number of cells was counted. […] After centrifugation, the supernatant was removed, the cells were suspended in 1 mL of the co-culture medium, and the number of cells was counted. […] In addition, at 24 hours after the stimulation with LPS or TNF-α, the neural activity was evaluated by calcium imaging. […] After incubating for 1 hour under conditions of 37° C. and 5% CO2, the solution was replaced with a warmed (37° C.) recording solution, and the fluorescence was measured for 10 minutes with FDSS (registered trademark)/μcell (Hamamatsu Photonics K. K., C13299). […]

NF-κB [4] = experiment: NF-κB localization by immunostaining after LPS stimulation, two-dimensional three-cell-type co-culture of astrocytes, neurons and microglia; settings: R-7050 10 μmol/L with LPS 100 ng/ml
Protocol: as §1
as §2, with “5×10^4 cells/well and” for “6×10^4 cells/well,”, “CO2. The next day, the” for “CO2, after”, “differentiation-inducing” for “differentiation induction”, “medium and” for “medium,”
The neurons were produced by forcing expression of the Ngn2 gene from iPS cells (WO2014/148646A; and Zhang Y, et al., Neuron, 78:785-98, 2013), and the cells that had been frozen and stored were used. The cells that had been frozen and stored were thawed in a warm bath at 37° C., and after thawing, the cells were added to the co-culture medium and centrifuged at 600×g at room temperature for 5 minutes. After centrifugation, the supernatant was removed, the cells were suspended in 1 mL of the co-culture medium, and the number of cells was counted.
as §3, with “As” for “The neurons were produced by forcibly expressing”, “microglia,” for “Ngn2 genes from the”, “cell-derived microglia (iCell (registered trademark) Microglia, FCDI, C1110)” for “cells and the cells that had been frozen and stored”
The neurons and the microglia were mixed in a ratio of 3:1 and seeded on the astrocytes at 4×10^4 cells/well. The cells were cultured under the conditions of 37° C. and 5% CO2, and half of the culture medium was replaced three times a week.
Microglia were specifically stimulated by adding LPS (FUJIFILM Wako Pure Chemical Corporation, 124-05151) at 100 ng/mL to the two-dimensional co-culture that had been cultured for 4 weeks. The cells were fixed by treating, for 30 minutes, with a formaldehyde solution (FUJIFILM Wako Pure Chemical Corporation, 061-00416) diluted 10-fold with PBS(−) (FUJIFILM Wako Pure Chemical Corporation, 166-23555) without treatment, and at 0.5 hours, 1 hour, 3 hours, 6 hours, and 24 hours after the treatment.
In addition, in the two-dimensional co-culture that had been cultured for 19 days, LPS (FUJIFILM Wako Pure Chemical Corporation, 124-05151) was added at 100 ng/ml and R-7050 (Cayman Chemical Company, 16870), which is a TNFR1 inhibitor, was added at 10 μmol/L, and the effect of TNF-α on the intercellular interaction induced by LPS stimulation was evaluated. The cells were fixed by treating, for 30 minutes, with a formaldehyde solution (FUJIFILM Wako Pure Chemical Corporation, 061-00416) diluted 10-fold with PBS (−) (FUJIFILM Wako Pure Chemical Corporation, 166-23555) without treatment, and at 0.5 hours, 1 hour, 3 hours, 6 hours, and 24 hours after the treatment.
The fixed cells were washed with PBS (−), and blocking and permeabilization were performed by treating with a solution (1% BSA/0.2% Triton X-100) in which BSA (Sigma-Aldrich, A4161) and Triton (registered trademark) X-100 (BioVision, 2104-100) were diluted to 1% and 0.2% with PBS (−) for 30 minutes. […]

Compound | BPM (the number of peaks of calcium oscillation per minute) as compared with the control [1] | nuclear translocation of NF-κB in GFAP-positive cells (astrocytes) (NF-κB [2]) | nuclear translocation of NF-κB in Neun-positive cells (neurons) (NF-κB [2]) | BPM (the number of peaks of calcium oscillation per minute) as compared with the control [3] | activation of the microglia affecting other cells (intercellular interaction) (NF-κB [4]) | nuclear signals of NF-κB, co-localization with microglia marker IBA1 (NF-κB [4]; 1, 3, and 6 hours after the LPS stimulation) | nuclear translocation of NF-κB (NF-κB [4]; 1, 3, and 6 hours after the LPS stimulation, co-culture cultured 19 days)
TNF-α | increase | occurred | not confirmed | increase |  |  | 
FC(F)(F)c1nnc2c(Sc3ccccc3)nc3ccc(Cl)cc3n12 [R-7050] |  |  |  |  | suppressed | all co-localized with IBA1 | only some cells
